Reference: PubChem BioAssay (NCI)
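Assay format: 96-well plates, 48-hour exposure. The concentration for full growth arrest is given as TGI.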

Tests used:
Test in all cases: DTP human tumour cell line panel, 48 h
786-0 renal = test system: 786-0 renal
A549 NSCLC = test system: A549 NSCLC
ACHN renal = test system: ACHN renal
CAKI-1 renal = test system: CAKI-1 renal
CCRF-CEM leukemia = test system: CCRF-CEM leukemia
COLO 205 colon = test system: COLO 205 colon
DU-145 prostate = test system: DU-145 prostate
EKVX NSCLC = test system: EKVX NSCLC
HCC-2998 colon = test system: HCC-2998 colon
HCT-116 colon = test system: HCT-116 colon
HCT-15 colon = test system: HCT-15 colon
HOP-92 NSCLC = test system: HOP-92 NSCLC
HS 578T breast = test system: HS 578T breast
HT29 colon = test system: HT29 colon
IGROV1 ovarian = test system: IGROV1 ovarian
K-562 leukemia = test system: K-562 leukemia
KM12 colon = test system: KM12 colon
LOX IMVI melanoma = test system: LOX IMVI melanoma
M14 melanoma = test system: M14 melanoma
MALME-3M melanoma = test system: MALME-3M melanoma
MCF7 breast = test system: MCF7 breast
MDA-MB-231 breast = test system: MDA-MB-231 breast
MDA-MB-435 = test system: MDA-MB-435
MOLT-4 leukemia = test system: MOLT-4 leukemia
NCI-H23 lung = test system: NCI-H23 lung
NCI-H460 lung = test system: NCI-H460 lung
NCI-H522 lung = test system: NCI-H522 lung
NCI/ADR-RES ovarian = test system: NCI/ADR-RES ovarian
OVCAR-4 ovarian = test system: OVCAR-4 ovarian
OVCAR-5 ovarian = test system: OVCAR-5 ovarian
OVCAR-8 ovarian = test system: OVCAR-8 ovarian
PC-3 prostate = test system: PC-3 prostate
RPMI-8226 leukemia = test system: RPMI-8226 leukemia
RXF 393 renal = test system: RXF 393 renal
SF-268 CNS = test system: SF-268 CNS
SF-295 CNS = test system: SF-295 CNS
SK-MEL-2 melanoma = test system: SK-MEL-2 melanoma
SK-MEL-28 melanoma = test system: SK-MEL-28 melanoma
SK-MEL-5 melanoma = test system: SK-MEL-5 melanoma
SK-OV-3 ovarian = test system: SK-OV-3 ovarian
SN12C renal = test system: SN12C renal
SNB-19 CNS = test system: SNB-19 CNS
SNB-75 CNS = test system: SNB-75 CNS
SR leukemia = test system: SR leukemia
SW-620 colon = test system: SW-620 colon
TK-10 renal = test system: TK-10 renal
U251 CNS = test system: U251 CNS
UACC-257 melanoma = test system: UACC-257 melanoma
UACC-62 melanoma = test system: UACC-62 melanoma
UO-31 renal = test system: UO-31 renal

Measured: TGI

C/C1=C\CC[C@@]2(C)O[C@@H]2[C@H]2OC(=O)C(C)C2C[C@H]1O (stereo not given in full)
> 100 µM: 786-0 renal | A549 NSCLC | ACHN renal | CAKI-1 renal | CCRF-CEM leukemia | COLO 205 colon | DU-145 prostate | EKVX NSCLC | HCC-2998 colon | HCT-116 colon | HCT-15 colon | HOP-92 NSCLC | HS 578T breast | HT29 colon | IGROV1 ovarian | K-562 leukemia | KM12 colon | LOX IMVI melanoma | M14 melanoma | MALME-3M melanoma | MCF7 breast | MDA-MB-231 breast | MDA-MB-435 | MOLT-4 leukemia | NCI-H23 lung | NCI-H460 lung | NCI-H522 lung | NCI/ADR-RES ovarian | OVCAR-4 ovarian | OVCAR-5 ovarian | OVCAR-8 ovarian | PC-3 prostate | RPMI-8226 leukemia | RXF 393 renal | SF-268 CNS | SF-295 CNS | SK-MEL-2 melanoma | SK-MEL-28 melanoma | SK-MEL-5 melanoma | SK-OV-3 ovarian | SN12C renal | SNB-19 CNS | SNB-75 CNS | SR leukemia | SW-620 colon | TK-10 renal | U251 CNS | UACC-257 melanoma | UACC-62 melanoma | UO-31 renal
